The source of these data is patent publication US12528761B2, “Thyromimetics” (Autobahn Therapeutics, Inc., priority 2020, dated 2026).

In assay [1] the target is T1, TRβ (Homo sapiens, UniProt P10828).
T1 construct: expressed in transfected cells; host or cells: HEK293
T1 sequence (P10828 217-461 limits assumed): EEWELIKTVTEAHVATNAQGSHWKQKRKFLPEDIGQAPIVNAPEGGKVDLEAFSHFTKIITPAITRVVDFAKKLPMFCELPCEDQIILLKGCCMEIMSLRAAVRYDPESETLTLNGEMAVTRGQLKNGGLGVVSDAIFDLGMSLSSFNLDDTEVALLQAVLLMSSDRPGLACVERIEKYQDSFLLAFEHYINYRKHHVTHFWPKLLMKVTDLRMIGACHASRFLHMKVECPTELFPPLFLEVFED
Put plainly: TR reporter-gene assay (Gal4 DBD hybrid, luciferase), TRβ. The class given is cell-based. Particulars: for EC50: HEK293-derived reporter cells, 24 hr treatment, read-out: TRβ EC50; for T3-SI (selectivity index, EC50 (TRα)/EC50 (TRβ)): class symbols. How it is done: (§1) Compounds were tested for thyroid-hormone receptor activity using TR reporter-gene assays. Reporter cells used in the assays express a TR-receptor hybrid (either TRα or TRβ) in which the native N-terminal DNA binding domain (DBD) has been replaced with that of the yeast Gal4 DBD. The reporter gene, firefly luciferase, is functionally linked to the Gal4 upstream activation sequence (UAS). Both cell lines were derived from human embryonic kidney (HEK293).
(§2) Step 1: A suspension of reporter cells was prepared in cell recovery medium containing 10% charcoal-stripped FBS, and dispensed into assay plates. The plates were pre-incubated for 6 hours in a cell culture incubator (37° C./5% CO2/85% humidity).
(§3) These intermediate stocks were subsequently diluted directly into compound screening medium containing 10% charcoal-stripped FBS to generate “2×-concentration” treatment media (containing 0.2, 0.4 or 0.8% DMSO).
(§4) Step 3: At the end of the pre-incubation period, culture media were discarded from the assay plates, and all wells received 100 μl of compound screening medium. 100 μl of each of the previously prepared “2×-concentration” treatment media were dispensed into duplicate assay wells, thereby achieving the desired final treatment concentrations. The final concentration of DMSO in all assay wells was 0.1, 0.2 or 0.4%. Assay plates were incubated for 24 hr in a cell culture incubator (37° C./5% CO2/85% humidity).
(§5) Step 4: At the 24 h assay endpoint, treatment media were discarded and 100 µl/well of luciferase detection reagent was added. Relative luminometer units (RLUs) were quantified from each assay well.

The target of assay [2] is T2, TRα (Homo sapiens, UniProt P10827).
T2 construct: expressed in transfected cells; host or cells: HEK293
T2 sequence (P10827 1-410 isoform P10827-2): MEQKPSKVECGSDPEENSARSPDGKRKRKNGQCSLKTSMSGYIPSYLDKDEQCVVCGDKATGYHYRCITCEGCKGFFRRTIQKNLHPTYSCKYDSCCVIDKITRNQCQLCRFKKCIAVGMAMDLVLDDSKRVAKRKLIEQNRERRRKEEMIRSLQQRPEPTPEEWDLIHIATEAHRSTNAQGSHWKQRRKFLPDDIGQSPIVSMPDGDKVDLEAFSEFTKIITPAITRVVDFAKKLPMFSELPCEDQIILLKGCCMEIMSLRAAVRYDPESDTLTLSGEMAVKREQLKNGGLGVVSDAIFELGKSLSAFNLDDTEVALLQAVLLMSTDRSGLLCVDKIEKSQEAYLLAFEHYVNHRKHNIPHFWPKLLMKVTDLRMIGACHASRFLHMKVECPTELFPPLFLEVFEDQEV
The assay can be described thus: TR reporter-gene assay (Gal4 DBD hybrid, luciferase), TRα. It counts as cell-based. Particulars: HEK293-derived reporter cells, 24 hr treatment; read-out: TRα EC50. How it is done:
as §1, §2, §3, §4, §5

Regarding `CC(C)c1cc(Cc2c(Cl)cc(CC(N)C(=O)O)cc2Cl)ccc1O` (stereo not drawn) [Compound 143, 2-amino-3-(3,5-dichloro-4-(4-hydroxy-3-isopropylbenzyl)phenyl)propanoic acid], in assay [1], the EC50 (as a rule, the concentration needed to bring the measured effect to its halfway point) lay within 10 to 100 nM and the “T3-SI (selectivity index, EC50 (TRα)/EC50 (TRβ))” value is “+ (T3-SI ≤ 3×)”. Also, the EC50 in assay [2] is 10 to 100 nM.

Regarding `CNC(=O)C(F)(F)Oc1cc(Cl)c(Cc2ccc(O)c(C(C)C)c2)c(Cl)c1` [Compound 84, 2-(3,5-dichloro-4-(4-hydroxy-3-isopropylbenzyl)phenoxy)-2,2-difluoro-N-methylacetamide], the EC50 in assay [1] and in assay [2] was 100 to 1000 nM in each case. Besides, in assay [1], the “T3-SI (selectivity index, EC50 (TRα)/EC50 (TRβ))” value was “+ (T3-SI ≤ 3×)”.

Consider `CONC(=O)Cc1cc(Cl)c(Cc2ccc(O)c(C(C)C)c2F)c(Cl)c1` [Compound 104, 2-(3,5-dichloro-4-(2-fluoro-4-hydroxy-3-isopropylbenzyl)phenyl)-N-methoxyacetamide], for which, in assay [1], the concentration for a half-maximal effect (EC50) is 100 to 1000 nM and the “T3-SI (selectivity index, EC50 (TRα)/EC50 (TRβ))” value is “+++ (T3-SI > 30×)”. Moreover, in assay [2], the EC50 is above 1000 nM.

With `Cc1cc(NCC(=O)O)cc(Cl)c1Cc1ccc(O)c(C(C)C)c1F` [Compound 247, (3-chloro-4-(2-fluoro-4-hydroxy-3-isopropylbenzyl)-5-methylphenyl)glycine], in assay [1], the EC50 lay in the range of 10 to 100 nM and the “T3-SI (selectivity index, EC50 (TRα)/EC50 (TRβ))” value is “++ (3× < T3-SI ≤ 30×)”. In assay [2], the EC50 lay in the range of 10 to 100 nM.

Take `CC(C)c1cc(Cc2c(Cl)cc(NCC(=O)O)cc2Cl)ccc1O` [Compound 20, (3,5-dichloro-4-(4-hydroxy-3-isopropylbenzyl)phenyl)glycine]: the EC50 in assay [1] and in assay [2] was 10 to 100 nM in each case. Also, the “T3-SI (selectivity index, EC50 (TRα)/EC50 (TRβ))” value in assay [1] is “++ (3× < T3-SI ≤ 30×)”.

As to `CC(C)c1c(O)ccc(Cc2c(Cl)cc(CNCC(=O)O)c(F)c2Cl)c1F` [Compound 153, (3,5-dichloro-2-fluoro-4-(2-fluoro-4-hydroxy-3-isopropylbenzyl)benzyl)glycine], in assay [1], the EC50 was 10 to 100 nM and the “T3-SI (selectivity index, EC50 (TRα)/EC50 (TRβ))” value is “++ (3× < T3-SI ≤ 30×)”. For the same molecule, the EC50 in assay [2] is 10 to 100 nM.

Consider `Cc1c(F)c(CNCC(=O)O)cc(Cl)c1Cc1ccc(O)c(C(C)C)c1` [Compound 221, (5-chloro-2-fluoro-4-(4-hydroxy-3-isopropylbenzyl)-3-methylbenzyl)glycine], for which the concentration for a half-maximal effect (EC50) in assay [1] and in assay [2] was 100 to 1000 nM throughout. Besides, the “T3-SI (selectivity index, EC50 (TRα)/EC50 (TRβ))” value in assay [1] was “++ (3× < T3-SI ≤ 30×)”.

As to `CC(C)c1cc(Cc2c(Cl)cc(/C=C/CC(=O)O)cc2Cl)ccc1O` [Compound 15, (E)-4-(3,5-dichloro-4-(4-hydroxy-3-isopropylbenzyl)phenyl)but-3-enoic acid], in assay [1], the EC50 was 10 to 100 nM and the “T3-SI (selectivity index, EC50 (TRα)/EC50 (TRβ))” value is “++ (3× < T3-SI ≤ 30×)”. The EC50 in assay [2] lay in the range of 10 to 100 nM.

For the molecule `CC(C)c1cc(Cc2c(Cl)cc([S+]([O-])CC(=O)O)cc2Cl)ccc1O` (stereo not drawn) [Compound 92, 2-((3,5-dichloro-4-(4-hydroxy-3-isopropylbenzyl)phenyl)sulfinyl)acetic acid], the EC50 in assay [1] and in assay [2] was above 1000 nM in each case. In addition, the “T3-SI (selectivity index, EC50 (TRα)/EC50 (TRβ))” value in assay [1] was “+++ (T3-SI > 30×)”.

As to `CC(C)c1cc(Cc2c(Cl)cc(SCC(=O)O)c(F)c2Cl)ccc1O` [Compound 204, 2-((3,5-dichloro-2-fluoro-4-(4-hydroxy-3-isopropylbenzyl)phenyl)thio)acetic acid], in assay [1], the EC50 was 10 to 100 nM and the “T3-SI (selectivity index, EC50 (TRα)/EC50 (TRβ))” value was “++ (3× < T3-SI ≤ 30×)”. In addition, in assay [2], the EC50 fell in the range of 10 to 100 nM.

Regarding `CC(C)c1cc(Cc2c(Cl)cc(NCCC(=O)O)cc2Cl)ccc1O` [Compound 103, 3-((3,5-dichloro-4-(4-hydroxy-3-isopropylbenzyl)phenyl)amino)propanoic acid], in assay [1], the EC50 fell in the range of 10 to 100 nM and the “T3-SI (selectivity index, EC50 (TRα)/EC50 (TRβ))” value is “++ (3× < T3-SI ≤ 30×)”. The EC50 in assay [2] fell in the range of 10 to 100 nM.

As to `CC(C)c1cc(Cc2c(Cl)cc(N(C)CC(=O)O)cc2Cl)ccc1O` [Compound 148, N-(3,5-dichloro-4-(4-hydroxy-3-isopropylbenzyl)phenyl)-N-methylglycine], the EC50 in assay [1] and in assay [2] was above 1000 nM throughout. The “T3-SI (selectivity index, EC50 (TRα)/EC50 (TRβ))” value in assay [1] was “+ (T3-SI ≤ 3×)”.

Consider `CC(C)c1c(O)ccc(Cc2c(Cl)cc(NCC(=O)O)cc2Cl)c1F` [Compound 46, (3,5-dichloro-4-(2-fluoro-4-hydroxy-3-isopropylbenzyl)phenyl)glycine], for which, in assay [1], the EC50 was below 10 nM and the “T3-SI (selectivity index, EC50 (TRα)/EC50 (TRβ))” value was “++ (3× < T3-SI ≤ 30×)”. In assay [2], the concentration giving a half-maximal response (EC50) is 10 to 100 nM.

Turning to `Cc1cc(CSCC(=O)O)cc(Cl)c1Cc1ccc(O)c(C(C)C)c1` [Compound 124, 2-((3-chloro-4-(4-hydroxy-3-isopropylbenzyl)-5-methylbenzyl)thio)acetic acid], in assay [1], the EC50 lay in the range of 10 to 100 nM and the “T3-SI (selectivity index, EC50 (TRα)/EC50 (TRβ))” value was “++ (3× < T3-SI ≤ 30×)”. Also, in assay [2], the EC50 fell in the range of 10 to 100 nM.

`C=C(Cc1cc(Cl)c(Cc2ccc(O)c(C(C)C)c2F)c(Cl)c1)C(=O)O` [Compound 201, 2-(3,5-dichloro-4-(2-fluoro-4-hydroxy-3-isopropylbenzyl)benzyl)acrylic acid]: in assay [1], the EC50 was below 10 nM and the “T3-SI (selectivity index, EC50 (TRα)/EC50 (TRβ))” value is “++ (3× < T3-SI ≤ 30×)”. The EC50 in assay [2] was below 10 nM.

For `Cc1cc(CC(=O)O)cc(C)c1Cc1ccc(O)c(C(C)c2ccc(F)cc2)c1` (stereo not drawn) [Compound 2, 2-(4-(3-(1-(4-fluorophenyl)ethyl)-4-hydroxybenzyl)-3,5-dimethylphenyl)acetic acid], in assay [1], the EC50 lay within 10 to 100 nM and the “T3-SI (selectivity index, EC50 (TRα)/EC50 (TRβ))” value is “++ (3× < T3-SI ≤ 30×)”. Also, the EC50 in assay [2] was 100 to 1000 nM.

Consider `Cc1cc(CNCC(=O)O)cc(Cl)c1Cc1ccc(O)c(C(C)C)c1` [Compound 251, (3-chloro-4-(4-hydroxy-3-isopropylbenzyl)-5-methylbenzyl)glycine], for which, in assay [1], the EC50 is above 1000 nM and the “T3-SI (selectivity index, EC50 (TRα)/EC50 (TRβ))” value is “+ (T3-SI ≤ 3×)”. For the same molecule, the EC50 in assay [2] was in the range of 100 to 1000 nM.

As for `CC(c1ccc(F)cc1)c1c(O)ccc(Cc2c(Cl)cc(NC(=O)CC(=O)O)cc2Cl)c1F` (stereo not drawn) [Compound 56, 3-((3,5-dichloro-4-(2-fluoro-3-(1-(4-fluorophenyl)ethyl)-4-hydroxybenzyl)phenyl)amino)-3-oxopropanoic acid], in assay [1], the EC50 is 10 to 100 nM and the “T3-SI (selectivity index, EC50 (TRα)/EC50 (TRβ))” value was “++ (3× < T3-SI ≤ 30×)”. Also, the EC50 in assay [2] fell in the range of 100 to 1000 nM.

For `CC(c1ccc(F)cc1)c1c(O)ccc(Cc2c(Cl)cc(CC(=O)O)cc2Cl)c1F` (stereo not drawn) [Compound 37, 2-(3,5-dichloro-4-(2-fluoro-3-(1-(4-fluorophenyl)ethyl)-4-hydroxybenzyl)phenyl)acetic acid], in assay [1], the EC50 is below 10 nM and the “T3-SI (selectivity index, EC50 (TRα)/EC50 (TRβ))” value is “++ (3× < T3-SI ≤ 30×)”. For the same molecule, the EC50 in assay [2] lay in the range of 10 to 100 nM.

`Cc1c(F)c(CSCC(=O)O)cc(Cl)c1Cc1ccc(O)c(C(C)C)c1` [Compound 226, 2-((5-chloro-2-fluoro-4-(4-hydroxy-3-isopropylbenzyl)-3-methylbenzyl)thio)acetic acid]: in assay [1], the EC50 was in the range of 100 to 1000 nM and the “T3-SI (selectivity index, EC50 (TRα)/EC50 (TRβ))” value is “++ (3× < T3-SI ≤ 30×)”. In addition, the EC50 in assay [2] was 100 to 1000 nM.

Take `CC(C)c1c(O)ccc(Cc2c(Cl)cc(CC(N)C(=O)O)cc2Cl)c1F` (stereo not drawn) [Compound 207, 2-amino-3-(3,5-dichloro-4-(2-fluoro-4-hydroxy-3-isopropylbenzyl)phenyl)propanoic acid]: in assay [1], the EC50 was 100 to 1000 nM and the “T3-SI (selectivity index, EC50 (TRα)/EC50 (TRβ))” value is “+ (T3-SI ≤ 3×)”. The EC50 in assay [2] is above 1000 nM.

Consider `Cc1cc(NCC(=O)O)cc(Cl)c1Cc1ccc(O)c(C(C)C)c1` [Compound 125, (3-chloro-4-(4-hydroxy-3-isopropylbenzyl)-5-methylphenyl)glycine], for which, in assay [1], the concentration giving a half-maximal response (EC50) was in the range of 10 to 100 nM and the “T3-SI (selectivity index, EC50 (TRα)/EC50 (TRβ))” value is “++ (3× < T3-SI ≤ 30×)”. Further, the concentration for a half-maximal effect (EC50) in assay [2] was in the range of 10 to 100 nM.
